# Data published in ChEMBL document CHEMBL1150025, “Synthesis of and glycosidase inhibition by -l-homofuconojirimycin” (Bioorg Med Chem Lett, 1993).
# Experiments:
# Clostridium perfringens = assay: Percent inhibition against neuraminidase from Type X, Clostridium perfringens at 1 mM concentration
# Canavalia ensiformis = assay: Percent inhibition against alpha-D-mannosidase from jack bean at 1 mM concentration
# [1] = substrate: Cc1cc(=O)oc2cc(OC3O[C@H](C)[C@H](O)[C@H](O)[C@H]3O)ccc12; assay: The Michaelis-Menten constant against alpha-L-fucosidase from solubilized human neutrophils was determined
Molecule,inhibition (Clostridium perfringens) [%],inhibition (Canavalia ensiformis) [%],Km [1] [µM]
C[C@@H]1NC[C@@H](O)[C@H](O)[C@@H]1O,50,83,
"CC1NC(CO)[C@@H](O)C(O)[C@@H]1O (single isomer, unassigned)",0,0,
"Plasma alpha-L-fucosidase (Homo sapiens), Q9BTY2 (protein) MRPQELPRLAFPLLLLLLLLLPPPPCPAHSATRFDPTWESLDARQLPAWFDQAKFGIFIHWGVFSVPSFGSEWFWWYWQKEKIPKYVEFMKDNYPPSFKYEDFGPLFTAKFFNANQWADIFQASGAKYIVLTSKHHEGFTLWGSEYSWNWNAIDEGPKRDIVKELEVAIRNRTDLRFGLYYSLFEWFHPLFLEDESSSFHKRQFPVSKTLPELYELVNNYQPEVLWSDGDGGAPDQYWNSTGFLAWLYNESPVRGTVVTNDRWGAGSICKHGGFYTCSDRYNPGHLLPHKWENCMTIDKLSWGYRREAGISDYLTIEELVKQLVETVSCGGNLLMNIGPTLDGTISVVFEERLRQMGSWLKVNGEAIYETHTWRSQNDTVTPDVWYTSKPKEKLVYAIFLKWPTSGQLFLGHPKAILGATEVKLLGHGQPLNWISLEQNGIMVELPQLTIHQMPCKWGWALALTNVI",,,250
